Each block holds one molecule with its values, some of them ahead of it. Activity calls are given as the source filed them. The rule behind the calls is not given here.
Key:
MCF7 [1] = assay: Antitumor activity against MCF7 cells; format: functional, cell-based; details: Homo sapiens
MCF7 [2] = assay: Inhibition of tumor growth in MCF7 cells xenografted BALB/c mouse at 10 mg/kg/day, ip after 30 days; format: functional, Homo sapiens; details: 720 h, route intraperitoneal
MCF7 [3] = assay: Inhibition of tumor growth in MCF7 cells xenografted BALB/c mouse at 10 mg/kg/day, po after 30 days; format: functional, Homo sapiens; details: MCF7, 720 h
Rattus norvegicus [4] = assay: Toxicity in Sprague-Dawley rat at 75 mg/kg/day, po after 14 days; format: organism-based; parameters: route oral; details: in vivo, 336 h
[5] = target: RAC-alpha serine/threonine-protein kinase (Homo sapiens) (UniProt P31749); assay: Inhibition of Akt1
Sequence of RAC-alpha serine/threonine-protein kinase (Homo sapiens) (P31749 whole entry): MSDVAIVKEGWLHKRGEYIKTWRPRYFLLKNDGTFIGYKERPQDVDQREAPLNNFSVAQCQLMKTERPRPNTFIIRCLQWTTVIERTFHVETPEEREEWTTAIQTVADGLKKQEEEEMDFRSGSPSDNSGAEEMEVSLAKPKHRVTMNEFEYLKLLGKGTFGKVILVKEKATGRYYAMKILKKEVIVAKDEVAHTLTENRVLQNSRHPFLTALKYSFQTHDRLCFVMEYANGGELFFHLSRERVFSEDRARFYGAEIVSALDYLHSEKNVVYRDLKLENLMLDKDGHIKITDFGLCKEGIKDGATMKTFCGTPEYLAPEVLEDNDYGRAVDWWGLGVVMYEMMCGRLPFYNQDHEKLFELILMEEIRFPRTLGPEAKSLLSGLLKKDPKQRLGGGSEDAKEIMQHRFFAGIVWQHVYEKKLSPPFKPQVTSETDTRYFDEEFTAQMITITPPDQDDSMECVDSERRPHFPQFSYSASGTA

Mus musculus [6] = assay: Toxicity assessed as effect on body weight of mouse at 500 mg/kg/day, po after 14 days; format: organism-based; parameters: route oral; details: in vivo, 336 h
[7] = target: Glycogen synthase kinase-3 beta (Homo sapiens) (UniProt P49841); assay: Inhibition of GSK3-beta activity in PC3 cells; format: cell-based; details: PC-3
Sequence of Glycogen synthase kinase-3 beta (Homo sapiens) (P49841 whole entry, looked up): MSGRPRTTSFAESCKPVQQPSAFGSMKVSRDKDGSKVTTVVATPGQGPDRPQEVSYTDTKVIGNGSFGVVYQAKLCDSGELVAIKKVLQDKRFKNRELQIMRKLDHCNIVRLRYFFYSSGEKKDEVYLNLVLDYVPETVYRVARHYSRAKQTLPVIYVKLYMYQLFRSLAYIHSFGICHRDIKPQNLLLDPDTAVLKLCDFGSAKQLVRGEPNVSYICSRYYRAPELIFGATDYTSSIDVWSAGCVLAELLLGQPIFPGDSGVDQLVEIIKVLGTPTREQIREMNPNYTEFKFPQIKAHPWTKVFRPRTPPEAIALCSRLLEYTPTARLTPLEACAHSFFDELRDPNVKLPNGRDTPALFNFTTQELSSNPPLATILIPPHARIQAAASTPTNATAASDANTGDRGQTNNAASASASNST

Rattus norvegicus [8] = assay: Toxicity in Sprague-Dawley rat at 200 mg/kg/day, po after 14 days; format: organism-based; parameters: route oral; details: in vivo, 336 h
Rattus norvegicus [9] = assay: Toxicity in Sprague-Dawley rat at 600 mg/kg/day, po after 14 days; format: organism-based; parameters: route oral; details: in vivo, 336 h
Homo sapiens = species: Homo sapiens; assay: Inhibition of PI3K
MDA-MB-468 = assay: Inhibition of serum-stimulated AKT phosphorylation in MDA-MB-468 cells; format: cell-based; details: Homo sapiens
MDA-MB-231 = assay: Inhibition of tumor growth in MDA-MB-231 cells xenografted po dosed mouse; format: functional, organism-based; details: Homo sapiens
Mus musculus [10] = species: Mus musculus; assay: Genotoxicity by mouse micronucleus test; format: toxicity, organism-based; details: in vivo
Rattus norvegicus [11] = assay: Toxicity in Sprague-Dawley rat at 25 mg/kg/day, po after 14 days; format: organism-based; parameters: route oral; details: in vivo, 336 h
SK-OV-3 = assay: Inhibition of tumor growth in SKOV3 cells xenografted po dosed mouse; format: functional, organism-based; details: Homo sapiens
[12] = target: RAC-gamma serine/threonine-protein kinase (Homo sapiens) (UniProt Q9Y243); assay: Inhibition of Akt3
Sequence of RAC-gamma serine/threonine-protein kinase (Homo sapiens) (Q9Y243 whole entry): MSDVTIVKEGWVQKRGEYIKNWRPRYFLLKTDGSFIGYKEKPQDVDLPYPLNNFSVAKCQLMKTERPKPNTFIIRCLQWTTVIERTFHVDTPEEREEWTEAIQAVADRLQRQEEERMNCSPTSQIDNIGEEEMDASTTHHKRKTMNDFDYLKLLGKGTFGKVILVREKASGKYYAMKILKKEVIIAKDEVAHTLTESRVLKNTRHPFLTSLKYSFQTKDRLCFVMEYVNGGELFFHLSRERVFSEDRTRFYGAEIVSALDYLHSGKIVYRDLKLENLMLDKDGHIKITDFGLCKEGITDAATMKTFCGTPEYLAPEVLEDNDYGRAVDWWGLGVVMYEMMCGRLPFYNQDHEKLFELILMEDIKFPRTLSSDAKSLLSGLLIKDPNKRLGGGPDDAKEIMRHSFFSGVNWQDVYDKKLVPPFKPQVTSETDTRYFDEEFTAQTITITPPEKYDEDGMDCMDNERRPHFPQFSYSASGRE

[13] = target: T1, 3-phosphoinositide-dependent protein kinase 1 (Homo sapiens) (UniProt O15530); assay: Inhibition of PDK1
T1 sequence (whole entry): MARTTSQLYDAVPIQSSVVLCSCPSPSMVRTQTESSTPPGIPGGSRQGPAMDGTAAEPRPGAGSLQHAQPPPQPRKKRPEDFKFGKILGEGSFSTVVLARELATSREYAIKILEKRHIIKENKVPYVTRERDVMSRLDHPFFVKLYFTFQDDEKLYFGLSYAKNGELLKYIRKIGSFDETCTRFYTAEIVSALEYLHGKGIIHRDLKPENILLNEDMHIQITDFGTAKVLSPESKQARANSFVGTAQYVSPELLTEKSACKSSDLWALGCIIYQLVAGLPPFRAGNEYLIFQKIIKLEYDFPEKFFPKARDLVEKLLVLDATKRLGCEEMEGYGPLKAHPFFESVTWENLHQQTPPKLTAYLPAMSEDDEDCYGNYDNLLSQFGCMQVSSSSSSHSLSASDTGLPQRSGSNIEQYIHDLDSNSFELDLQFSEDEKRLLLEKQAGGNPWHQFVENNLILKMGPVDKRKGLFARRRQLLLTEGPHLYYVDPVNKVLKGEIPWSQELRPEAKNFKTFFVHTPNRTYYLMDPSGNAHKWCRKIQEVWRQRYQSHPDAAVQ

PC-3 [14] = assay: Inhibition of tumor growth in PC3 cells xenografted po dosed mouse; format: functional, organism-based; details: Homo sapiens
PC-3 [15] = assay: Inhibition of serum-stimulated AKT phosphorylation in PC3 cells; format: cell-based; details: Homo sapiens
[16] = target: RAC-beta serine/threonine-protein kinase (Homo sapiens) (UniProt P31751); assay: Inhibition of Akt2
Sequence of RAC-beta serine/threonine-protein kinase (Homo sapiens) (P31751 whole entry): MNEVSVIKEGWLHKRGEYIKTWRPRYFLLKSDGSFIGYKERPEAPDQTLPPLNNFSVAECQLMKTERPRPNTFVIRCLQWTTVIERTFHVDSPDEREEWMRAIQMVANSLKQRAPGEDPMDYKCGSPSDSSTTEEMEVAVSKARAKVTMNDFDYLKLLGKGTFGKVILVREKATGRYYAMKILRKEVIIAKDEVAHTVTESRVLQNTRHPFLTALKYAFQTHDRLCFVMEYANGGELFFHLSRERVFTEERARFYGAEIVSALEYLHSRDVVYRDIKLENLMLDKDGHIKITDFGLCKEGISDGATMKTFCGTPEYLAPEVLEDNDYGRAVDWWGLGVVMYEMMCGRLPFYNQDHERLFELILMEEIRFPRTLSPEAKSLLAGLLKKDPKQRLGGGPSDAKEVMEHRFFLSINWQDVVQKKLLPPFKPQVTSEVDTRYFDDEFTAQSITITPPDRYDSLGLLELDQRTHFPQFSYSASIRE

Mus musculus [17] = assay: Toxicity assessed as effect on fasting glucose level in mouse at 500 mg/kg/day, po after 14 days; format: organism-based; parameters: route oral; details: in vivo, 336 h

IC50 (MCF7 [1]): 1750 nM
Structure (SMILES): CCOC(=O)c1ccc2[nH]cc(Cc3c[nH]c4ccc(C(=O)OCC)cc34)c2c1

IC50 (MCF7 [1]): > 10000 nM
Structure (SMILES): CN(C)C(=O)c1ccc2[nH]cc(Cc3c[nH]c4ccc(C(=O)N(C)C)cc34)c2c1

IC50 (MCF7 [1]): > 10000 nM
Structure (SMILES): CC(C)(c1c[nH]c2ccccc12)c1c[nH]c2ccccc12

Structure (SMILES): CCOC(=O)c1ccc2[nH]c3c(C(F)(F)C(F)(F)C(F)(F)F)c4[nH]c5ccc(C(=O)OCC)cc5c4cc3c2c1
IC50 (MCF7 [1]): 90 nM

IC50 (MCF7 [1]): > 10000 nM
Structure (SMILES): c1cc(-c2c[nH]c3ccccc23)cc(-c2c[nH]c3ccccc23)c1

IC50 (MCF7 [1]): 110 nM
Structure (SMILES): CCOC(=O)Oc1c2[nH]c3ccc(C(=O)OCC)cc3c2cc2c1[nH]c1ccc(C(=O)OCC)cc12

IC50 (MCF7 [1]): 940 nM
Structure (SMILES): c1ccc2[nH]c(Cc3cc4ccccc4[nH]3)cc2c1

IC50 (MCF7 [1]): 80 nM
Structure (SMILES): CCOC(=O)Oc1c2[nH]c3ccccc3c2cc2c1[nH]c1ccccc12
inhibition in vivo at 10 mg/kg/day (MCF7 [2]): 43% | inhibition in vivo at 10 mg/kg/day (MCF7 [3]): 26%

IC50 (MCF7 [1]): > 10000 nM
Structure (SMILES): O=C(O)c1ccc2[nH]cc(Cc3c[nH]c4ccc(C(=O)O)cc34)c2c1

IC50 (MCF7 [1]): 3300 nM
Structure (SMILES): C=C(c1c[nH]c2ccccc12)c1c[nH]c2ccccc12

IC50 (MCF7 [1]): > 10000 nM
Structure (SMILES): CS(=O)(=O)c1ccc2[nH]cc(Cc3c[nH]c4ccc(S(C)(=O)=O)cc34)c2c1

IC50 (MCF7 [1]): 5500 nM
Structure (SMILES): c1ccc2c(Cc3c[nH]c4ccccc34)c[nH]c2c1 [ARUNDINE]

IC50 (MCF7 [1]): 190 nM | Activity [5]: inactive | Activity [7]: Active | Activity (Homo sapiens): inactive | Activity [12]: inactive | Activity [13]: inactive | Activity [16]: inactive
Structure (SMILES): CCOC(=O)c1ccc2[nH]c3c(OC)c4[nH]c5ccc(C(=O)OCC)cc5c4cc3c2c1 [SR-13668]
Activity (Rattus norvegicus [4]): Non-toxic | Activity (Mus musculus [6]): Active | Activity (Rattus norvegicus [8]): Non-toxic | Activity (Rattus norvegicus [9]): Non-toxic | Activity (MDA-MB-468): Active | Activity (MDA-MB-231): Active | Activity (Mus musculus [10]): Non-toxic | Activity (Rattus norvegicus [11]): Non-toxic | Activity (SK-OV-3): Active | Activity (PC-3 [14]): Active | Activity (PC-3 [15]): Active | Activity (Mus musculus [17]): Active

Source: ChEMBL document CHEMBL1146215, “Computer-aided rational drug design: a novel agent (SR13668) designed to mimic the unique anticancer mechanisms of dietary indole-3-carbinol to block Akt signaling” (J Med Chem, 2007)
